Laboratory results published in patent US10947213B1 (Merck Patent GmbH, priority 2015, dated 2021).

biological target: T1, TLR7/NFKb HEK cells (Homo sapiens, UniProt Q9NYK1); test: HEK Cell Assay (TLR7/NFKb reporter, Steady-Glo luciferase readout); assay type: cell-based; conditions: 30 min compound preincubation, then R*48 agonist for 5 hours, read-out: Potency
T1 construct: expressed in transfected cells; host or cells: HEK cells (TLR7/NFKb reporter line)
T1 sequence (Q9NYK1 27-1049): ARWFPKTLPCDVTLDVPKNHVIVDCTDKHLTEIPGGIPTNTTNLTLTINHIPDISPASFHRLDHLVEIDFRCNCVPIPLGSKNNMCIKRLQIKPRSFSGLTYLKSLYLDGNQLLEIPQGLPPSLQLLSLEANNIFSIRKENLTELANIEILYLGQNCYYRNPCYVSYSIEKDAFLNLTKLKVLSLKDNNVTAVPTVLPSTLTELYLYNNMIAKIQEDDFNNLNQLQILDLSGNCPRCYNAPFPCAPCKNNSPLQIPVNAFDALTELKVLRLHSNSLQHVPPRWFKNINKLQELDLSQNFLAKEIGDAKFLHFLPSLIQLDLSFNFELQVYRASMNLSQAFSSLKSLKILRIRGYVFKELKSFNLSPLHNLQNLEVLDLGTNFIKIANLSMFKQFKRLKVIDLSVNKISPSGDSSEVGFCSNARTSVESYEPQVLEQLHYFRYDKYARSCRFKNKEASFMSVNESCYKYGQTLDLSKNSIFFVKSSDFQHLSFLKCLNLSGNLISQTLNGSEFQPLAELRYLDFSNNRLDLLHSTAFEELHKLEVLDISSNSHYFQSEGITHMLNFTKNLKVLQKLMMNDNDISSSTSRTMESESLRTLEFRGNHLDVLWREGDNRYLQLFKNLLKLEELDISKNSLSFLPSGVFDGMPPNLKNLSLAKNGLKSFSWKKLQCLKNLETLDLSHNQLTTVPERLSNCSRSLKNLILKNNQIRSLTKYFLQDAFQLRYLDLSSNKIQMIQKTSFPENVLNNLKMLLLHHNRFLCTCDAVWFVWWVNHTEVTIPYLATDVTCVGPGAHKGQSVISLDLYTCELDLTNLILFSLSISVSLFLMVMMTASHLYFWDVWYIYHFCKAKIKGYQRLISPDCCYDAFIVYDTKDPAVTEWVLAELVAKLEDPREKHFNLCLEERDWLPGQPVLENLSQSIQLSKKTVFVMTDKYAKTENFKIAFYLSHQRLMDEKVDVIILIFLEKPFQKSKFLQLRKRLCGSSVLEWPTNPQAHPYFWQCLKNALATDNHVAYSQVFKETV
Method in brief: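 Steady-Glo luminescence after 5 h stimulation with R*48 agonist, following 30 min compound preincubation. Assay run in HEK cells carrying a TLR7/NFKb luciferase reporter, plated at 5000 cells/well and grown 24 h at 37° C (10% CO2) before treatment.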

IC50 [µM] | SMILES
1 to 10 | C[C@H]1C[C@@H](NC(=O)CN2CC(N)C2)CN(c2ccc(C(F)F)c3nccnc23)C1 [Compound 365, 2-(3-aminoazetidin-1-yl)-N-[(3R,5S)-1-[8-(difluoromethyl)quinoxalin-5-yl]-5-methylpiperidin-3-yl]acetamide]
1 to 10 | O=C(NCCN1CCCCC1)C1CCN(c2ccnc3nccnc23)CC1 [Compound 373, 1-Pyrido[2,3-b]pyrazin-8-yl-piperidine-4-carboxylic acid (2-piperidin-1-yl-ethyl)-amide]
1 to 10 | CCN(CC)CCNCC1CCN(c2cc(C)nc3ccc(F)cc23)CC1 [Compound 374, N,N-diethyl-N′-[1-(6-fluoro-2-methyl-quinolin-4-yl)-piperidin-4-ylmethyl]-ethane-1,2-diamine]
1 to 10 | CCN(CC)CCNCC1CCN(c2ccnc3ccc(F)cc23)CC1 [Compound 375, N,N-Diethyl-N′-[1-(6-fluoro-quinolin-4-yl)-piperidin-4-ylmethyl]-ethane-1,2-diamine]
1 to 10 | CCN(CC)CCNCC1CCN(c2ccnc3cc(C(F)(F)F)ccc23)CC1 [Compound 376, N,N-Diethyl-N′-[1-(7-trifluoromethyl-quinolin-4-yl)-piperidin-4-ylmethyl]-ethane-1,2-diamine]
1 to 10 | CCN(CC)CCNCC1CCN(c2ccnc3ccc(C(F)(F)F)cc23)CC1 [Compound 377, N,N-Diethyl-N′-[1-(6-trifluoromethyl-quinolin-4-yl)-piperidin-4-ylmethyl]-ethane-1,2-diamine]
1 to 10 | Fc1ccc2nccc(N3CCC(CNCCN4CCCCC4)CC3)c2c1 [Compound 378, [1-(6-Fluoro-quinolin-4-yl)-piperidin-4-ylmethyl]-(2-piperidin-1-yl-ethyl)-amine]
1 to 10 | CCN(CC)CCNC(=O)C1CCN(c2ccnc3nccnc23)CC1 [Compound 379]
1 to 10 | Cc1cc(N2CCC(CNCCN3CCCCC3)CC2)c2cc(F)ccc2n1 [Compound 381, [1-(6-Fluoro-2-methyl-quinolin-4-yl)-piperidin-4-ylmethyl]-(2-piperidin-1-yl-ethyl)-amine]
1 to 10 | CCN(CC)CCNCC1CCN(c2ccnc3ccc(OC)cc23)CC1 [Compound 382, N,N-Diethyl-N′-[1-(6-methoxy-quinolin-4-yl)-piperidin-4-ylmethyl]-ethane-1,2-diamine]
1 to 10 | CCN(CC)CCNCC1CCN(c2ccnc3cc(F)ccc23)CC1 [Compound 383, N,N-Diethyl-N′-[1-(7-fluoro-quinolin-4-yl)-piperidin-4-ylmethyl]-ethane-1,2-diamine]
1 to 10 | CCN(CC)CCNCC1CCN(c2ccnc3ccc(C)cc23)CC1 [Compound 384, N,N-Diethyl-N′-[1-(6-methyl-quinolin-4-yl)-piperidin-4-ylmethyl]-ethane-1,2-diamine]
1 to 10 | CCN(CC)CCNCC1CCN(c2c(C)c(C)nc3ccc(F)cc23)CC1 [Compound 385, N,N-Diethyl-N′-[1-(6-fluoro-2,3-dimethyl-quinolin-4-yl)-piperidin-4-ylmethyl]-ethane-1,2-diamine]
1 to 10 | CCN(CC)CCNCC1CCN(c2cc(C)nc3cc(F)ccc23)CC1 [Compound 386, N,N-Diethyl-N′-[1-(7-fluoro-2-methyl-quinolin-4-yl)-piperidin-4-ylmethyl]-ethane-1,2-diamine]
1 to 10 | FC(F)(F)c1ccc2nccc(N3CCC(CNCCN4CCCCC4)CC3)c2c1 [Compound 387, (2-Piperidin-1-yl-ethyl)-[1-(6-trifluoromethyl-quinolin-4-yl)-piperidin-4-ylmethyl]-amine]
1 to 10 | O=C(CN1CCCCC1)NCC1CCN(c2ccnc3nccnc23)CC1 [Compound 388, 2-Piperidin-1-yl-N-(1-pyrido[2,3-b]pyrazin-8-yl-piperidin-4-ylmethyl)-acetamide]
1 to 10 | CCN(CC)CCNCC1CCN(c2ccnc3cc(C)ccc23)CC1 [Compound 389, N,N-Diethyl-N′-[1-(7-methyl-quinolin-4-yl)-piperidin-4-ylmethyl]-ethane-1,2-diamine]
1 to 10 | CCN(CC)CC(=O)NC1CCN(c2ccnc3nccnc23)CC1 [Compound 390, 2-Diethylamino-N-(1-pyrido[2,3-b]pyrazin-8-yl-piperidin-4-yl)-acetamide]

IC50 [µM] | SMILES
> 10 | COc1ccc(C(=O)NCC2CCN(c3ccnc4nccnc34)CC2)cc1OC [Compound 391, 3,4-Dimethoxy-N-(1-pyrido[2,3-b]pyrazin-8-yl-piperidin-4-ylmethyl)-benzamide]
> 10 | O=C(NCC1CCN(c2ccnc3nccnc23)CC1)c1ccccn1 [Compound 392, Pyridine-2-carboxylic acid (1-pyrido[2,3-b]pyrazin-8-yl-piperidin-4-ylmethyl)-amide]
1 to 10 | C[C@@H]1CN(c2ccc(C#N)c3ncncc23)C[C@H](C)O1 [Compound 393, cis-5-(2,6-Dimethyl-morpholin-4-yl)-quinazoline-8-carbonitrile]
1 to 10 | CN(C)CC(=O)NCC1CCN(c2ccnc3nccnc23)CC1 [Compound 394, 2-Dimethylamino-N-(1-pyrido[2,3-b]pyrazin-8-yl-piperidin-4-ylmethyl)-acetamide]
1 to 10 | CCN(CC)CC(=O)NCC1CCN(c2ccc(C#N)c3ncncc23)CC1 [Compound 395, N-[1-(8-Cyano-quinazolin-5-yl)-piperidin-4-ylmethyl]-2-diethylamino-acetamide]
> 10 | CCN(CC)CCC(=O)NC1CCN(c2ccnc3nccnc23)CC1 [Compound 396, 3-Diethylamino-N-(1-pyrido[2,3-b]pyrazin-8-yl-piperidin-4-yl)-propionamide]
1 to 10 | CCN(CC)CCNC(=O)C1CCN(c2ccc(C#N)c3ncncc23)CC1 [Compound 397, 1-(8-Cyano-quinazolin-5-yl)-piperidine-4-carboxylic acid (2-diethylamino-ethyl)-amide]
< 1 | CCN(CC)CC(=O)NCC1CCN(c2ccc(C#N)c3ncccc23)CC1 [Compound 398, N-[1-(8-Cyano-quinolin-5-yl)-piperidin-4-ylmethyl]-2-diethylamino-acetamide]
> 10 | CC(C)(C)CC(=O)NCC1CCN(c2ccnc3nccnc23)CC1 [Compound 399, 3,3-Dimethyl-N-(1-pyrido[2,3-b]pyrazin-8-yl-piperidin-4-ylmethyl)-butyramide]
> 10 | O=C(CCCN1CCCCC1)N1CCN(c2ccnc3nccnc23)CC1 [Compound 400, 4-Piperidin-1-yl-1-(4-pyrido[2,3-b]pyrazin-8-yl-piperazin-1-yl)-butan-1-one]
1 to 10 | CCN(CC)CCNCC1CCN(c2ccc(C#N)c3ncccc23)CC1 [Compound 401, 5-{4-[(2-Diethylamino-ethylamino)-methyl]-piperidin-1-yl}-quinoline-8-carbonitrile]
1 to 10 | O=C(CN1CCC1)NCC1CCN(c2ccnc3nccnc23)CC1 [Compound 402, 2-Azetidin-1-yl-N-(1-pyrido[2,3-b]pyrazin-8-yl-piperidin-4-ylmethyl)-acetamide]
< 1 | N#Cc1ccc(N2CCC(C(=O)NCCN3CCCCC3)CC2)c2cccnc12 [Compound 403, 1-(8-Cyano-quinolin-5-yl)-piperidine-4-carboxylic acid (2-piperidin-1-yl-ethyl)-amide]
> 10 | COc1cccc(NCC(=O)NCC2CCN(c3ccnc4nccnc34)CC2)c1 [Compound 404, 2-(3-Methoxy-phenylamino)-N-(1-pyrido[2,3-b]pyrazin-8-yl-piperidin-4-ylmethyl)-acetamide]
1 to 10 | CCN(CC)CC(=O)N(C)CC1CCN(c2ccnc3nccnc23)CC1 [Compound 405, 2-Diethylamino-N-methyl-N-(1-pyrido[2,3-b]pyrazin-8-yl-piperidin-4-ylmethyl)-acetamide]
1 to 10 | CC(C)(C)NCC(=O)NCC1CCN(c2ccnc3nccnc23)CC1 [Compound 406, 2-tert-Butylamino-N-(1-pyrido[2,3-b]pyrazin-8-yl-piperidin-4-ylmethyl)-acetamide]
< 1 | CCN(CC)CCNC(=O)C1CCN(c2ccc(C#N)c3ncccc23)CC1 [Compound 407, 1-(8-Cyano-quinolin-5-yl)-piperidine-4-carboxylic acid (2-diethylamino-ethyl)-amide]
1 to 10 | CCN(C)CC(=O)NCC1CCN(c2ccnc3nccnc23)CC1 [Compound 408, 2-(Ethyl-methyl-amino)-N-(1-pyrido[2,3-b]pyrazin-8-yl-piperidin-4-ylmethyl)-acetamide]
